Measured values as given in patent US10314823B2, “Substituted 1,2-dihydro-3H-pyrrolo[1,2-c]imidazol-3-one antibacterial compounds” (IDORSIA PHARMACEUTICALS LTD, priority 2015, dated 2019).
In brackets after ≈: the same amount, converted by molar mass.

Columns and labels:
Test in all cases: Bacterial growth minimal inhibitory concentration (CLSI broth microdilution)
Format in all cases: cell-based
K. pneumoniae A-651 = conditions: Klebsiella pneumoniae, A651; multiply resistant strain (in particular quinolone-resistant); cation-adjusted Mueller-Hinton Broth
Method: (§1) Minimal Inhibitory Concentrations (MICs; mg/L) were determined in cation-adjusted Mueller-Hinton Broth by a microdilution method following the description given in “Methods for Dilution Antimicrobial Susceptibility Tests for Bacteria that Grow Aerobically”, Approved standard, 7th ed., Clinical and Laboratory Standards Institute (CLSI) Document M7-A7, Wayne, Pa., USA (2006).
(§2) All Reference Example compounds were tested against several Gram-negative bacteria. K. pneumoniae A-651 is a multiply resistant strain (in particular quinolone-resistant), while E. coli ATCC25922 and P. aeruginosa ATCC27853 are quinolone-sensitive strains. The corresponding antibacterial test results are given in Table 1 hereafter (MICs in mg/L).

P. aeruginosa ATCC27853 = conditions: Pseudomonas aeruginosa, ATCC27853; quinolone-sensitive strain; cation-adjusted Mueller-Hinton Broth
Method: as §1, §2

E. coli ATCC25922 = conditions: Escherichia coli, ATCC25922; quinolone-sensitive strain; cation-adjusted Mueller-Hinton Broth
Method: as §1, §2

Structure (SMILES) | MIC (K. pneumoniae A-651) [µg/mL] | MIC (P. aeruginosa ATCC27853) [µg/mL] | MIC (E. coli ATCC25922) [µg/mL]
CN1CCC(C#CC#Cc2cc3n(c2)C(=O)N(CC[C@](C)(C(=O)NO)S(C)(=O)=O)C3)CC1 [Example 34, (2R)—N-hydroxy-2-methyl-4-(6-((1-methylpiperidin-4-yl)buta-1,3-diyn-1-yl)-3-oxo-1H-pyrrolo[1,2-c]imidazol-2(3H)-yl)-2-(methylsulfonyl)butanamide] | 4 (≈ 8.69 µM) | 1 (≈ 2.17 µM) | 4 (≈ 8.69 µM)
C[C@@](CCN1Cc2cc(C#CC#CCN3CCOC3=O)cn2C1=O)(C(=O)NO)S(C)(=O)=O [Example 9, (2R)—N-hydroxy-2-methyl-2-(methylsulfonyl)-4-(3-oxo-6-(5-(2-oxooxazolidin-3-yl)penta-1,3-diyn-1-yl)-1H-pyrrolo[1,2-c]imidazol-2(3H)-yl)butanamide] | 4 (≈ 8.65 µM) | 8 (≈ 17.3 µM) | 2 (≈ 4.32 µM)
CN1CC(C#CC#Cc2cc3n(c2)C(=O)N(CC[C@](C)(C(=O)NO)S(C)(=O)=O)C3)C1 [Example 30, (2R)—N-hydroxy-2-methyl-4-(6-((1-methylazetidin-3-yl)buta-1,3-diyn-1-yl)-3-oxo-1H-pyrrolo[1,2-c]imidazol-2(3H)-yl)-2-(methylsulfonyl)butanamide] | 0.5 (≈ 1.16 µM) | 0.5 (≈ 1.16 µM) | 0.5 (≈ 1.16 µM)
C[C@@](CCN1Cc2cc(C#CC#CC3CN(C[C@@H](O)CO)C3)cn2C1=O)(C(=O)NO)S(C)(=O)=O [Example 51, (2R)-4-(6-((1-((R)-2,3-dihydroxypropyl)azetidin-3-yl)buta-1,3-diyn-1-yl)-3-oxo-1H-pyrrolo[1,2-c]imidazol-2(3H)-yl)-N-hydroxy-2-methyl-2-(methylsulfonyl)butanamide] | 4 (≈ 8.12 µM) | 1 (≈ 2.03 µM) | 1 (≈ 2.03 µM)
C[C@@](CCN1Cc2cc(C#CC#CC3(COC(=O)N4CC(O)C4)CC3)cn2C1=O)(C(=O)NO)S(C)(=O)=O [Example 22, (3R)-(1-((2-(4-(hydroxyamino)-3-methyl-3-(methylsulfonyl)-4-oxobutyl)-3-oxo-2,3-dihydro-1H-pyrrolo[1,2-c]imidazol-6-yl)buta-1,3-diyn-1-yl)cyclopropyl)methyl 3-hydroxyazetidine-1-carboxylate] | 4 (≈ 7.51 µM) | 4 (≈ 7.51 µM) | 1 (≈ 1.88 µM)
C[C@@](CCN1Cc2cc(C#CC#C[C@@H]3C[C@H]3[C@H](O)CO)cn2C1=O)(C(=O)NO)S(C)(=O)=O [Example 7, (2R)-4-(6-(((1R,2R)-2-((S)-1,2-dihydroxyethyl)cyclopropyl)buta-1,3-diyn-1-yl)-3-oxo-1H-pyrrolo[1,2-c]imidazol-2(3H)-yl)-N-hydroxy-2-methyl-2-(methylsulfonyl)butanamide] | 2 (≈ 4.31 µM) | 0.5 (≈ 1.08 µM) | 0.5 (≈ 1.08 µM)

Second part, the compound after the results:

MIC (K. pneumoniae A-651) [µg/mL] | MIC (P. aeruginosa ATCC27853) [µg/mL] | MIC (E. coli ATCC25922) [µg/mL] | Structure (SMILES)
0.25 (≈ 0.459 µM) | 1 (≈ 1.84 µM) | 0.25 (≈ 0.459 µM) | C[C@@](CCN1Cc2cc(C#Cc3ccc(COC(=O)N4CC(O)C4)cc3)cn2C1=O)(C(=O)NO)S(C)(=O)=O [Example 10, (3R)-4-((2-(4-(hydroxyamino)-3-methyl-3-(methylsulfonyl)-4-oxobutyl)-3-oxo-2,3-dihydro-1H-pyrrolo[1,2-c]imidazol-6-yl)ethynyl)benzyl 3-hydroxyazetidine-1-carboxylate]
0.5 (≈ 0.875 µM) | 2 (≈ 3.5 µM) | 0.25 (≈ 0.437 µM) | CN1CCN(C(=O)OCc2ccc(C#Cc3cc4n(c3)C(=O)N(CC[C@](C)(C(=O)NO)S(C)(=O)=O)C4)cc2)CC1 [Example 17, (3R)-4-((2-(4-(hydroxyamino)-3-methyl-3-(methylsulfonyl)-4-oxobutyl)-3-oxo-2,3-dihydro-1H-pyrrolo[1,2-c]imidazol-6-yl)ethynyl)benzyl 4-methylpiperazine-1-carboxylate]
1 (≈ 1.83 µM) | 1 (≈ 1.83 µM) | 1 (≈ 1.83 µM) | C[C@@](CCN1Cc2cc(C#Cc3ccc(CN4CC[C@H](N)[C@@H](F)C4)cc3)cn2C1=O)(C(=O)NO)S(C)(=O)=O (relative stereo) [Example 13, (2R)-4-(6-((4-(((3S*,4S*)-4-amino-3-fluoropiperidin-1-yl)methyl)phenyl)ethynyl)-3-oxo-1H-pyrrolo[1,2-c]imidazol-2(3H)-yl)-N-hydroxy-2-methyl-2-(methylsulfonyl)butanamide]
